Data from patent US20240110200A1, “Recombinant AAV Vectors and Gene Therapies for Treating Brain Diseases” (City University of Hong Kong, priority 2022, published 2024).
*1 amine or outer side, *2 acyl side, *3 side chain or, on linkers, in order; H or OH if unused. Where a SMILES comes first, the peptide text is derived from it. Where no end group is shown, it is not given here. Side-chain parts run from the residue outwards. [ ]: non-standard residue; d: D form. The star is where a group is joined. NMeF = CN[C@@H](Cc1ccccc1)C(=O)O; NH(2-Me-phenyl) = Cc1ccccc1N*; Boc = CC(C)(C)OC(=O)*; CO = O=C([*:1])[*:2]; Ahx = NCCCCCC(=O)O

Columns and labels:
[1] = biological target: T1, GPR173 (Homo sapiens, UniProt Q9NS66); test: Calcium imaging assay in CHO-GPR173 cell line; assay type: cell-based; settings: for calcium signal in CHO-GPR173 cells: after incubation with the peptide
Protocol: (§1) All measurements of calcium imaging are performed by EnVision 2104 Multilabel Reader (Perkin Elmer, Waltham, Massachusetts, US, https://www.perkinelmer.com, excitation: 485 nm and emission: 535 nm). […] Cells are cultured at 37° C., 5% CO2 in DMEM/F-12 medium (Thermo Fisher, Waltham, MA, US, https://www.thermofisher.cn) containing 10% FBS (Natocor-Industria Biológica) and washed with DMEM/F-12 medium once after overnight incubation.

[2] = test system: pyramidal neurons (CCK-GABA synapses) in the AC; test: In vitro patch-clamp recording of laser-evoked IPSC in pyramidal neurons of auditory cortex brain slices; assay type: cell-based, CCK-Cre mice
Protocol: In the experiments of FIGS. 2-3, a protective cutting and recovery method is adopted in preparing acute brain slices of CCK-Cre, PV-Cre, CCK-KO, and CCK1R/2R-KO mice to achieve a higher success rate for patch-clamp, as previously described in Chen, X., et al., Natl. Acad. Sci., Vol. 116, pp. 2019. Briefly, the anaesthetized mice are perfused transcardially with NMDG-aCSF (92 mM NMDG, 2.5 mM KCl, 1.25 mM NaH2PO4, 30 mM NaHCO3, 20 mM HEPES, 25 mM glucose, 2 mM thiourea, 5 mM Na-ascorbate, 3 mM Na-pyruvate, 0.5 mM CaCl2·4H2O, and 10 mM MgSO4·7H2O; pH 7.3-7.4), and the brain is extracted and cut into 300 μm-thick sections. The slices are transferred to NMDG-aCSF for 10 min at 32-34° C. to allow protective recovery and then to room-temperature HEPES-aCSF (92 mM NaCl, 2.5 mM KCl, 1.25 mM NaH2PO4, 30 mM NaHCO3, 20 mM HEPES, 25 mM glucose, 2 mM thiourea, 5 mM Na-ascorbate, 3 mM Na-pyruvate, 2 mM CaCl2·4H2O, and 2 mM MgSO4·7H2O; pH 7.3-7.4) for at least 1 h before recording.
Whole-cell recordings (with Multiclamp 700B amplifier and Digital 1440A digitizer, Molecular Devices, www.moleculardevices.com, Menlo Park, California, USA), targeting the AC of the brain slices in room-temperature aCSF (119 mM NaCl, 2.5 mM KCl, 1.25 mM NaH2PO4, 24 mM NaHCO3, 12.5 mM glucose, 2 mM CaCl2·4H2O and 2 mM MgSO4·7H2O, ˜25° C.) are performed. Patch pipettes are pulled with resistance between 3-5 MQ from borosilicate glass (WPI, World Precision Instruments; UK; httpss://www.wpiinc.com/) on a Sutter-87 puller (Sutter Instrument; CA, US, https://www.sutter.com/). The intracellular solution contains: 145 mM K-Gluconate, 10 mM HEPES, 1 mM EGTA, 2 mM Mg-ATP, 0.3 mM Na2-GTP, and 2 mM MgCl2; pH 7.3; 290-300 mOsm. Similarly, after Giga-Ohm seal formation, recordings are made and then terminated if Rs changes more than 20%. Pyramidal neurons are selected based on the pyramidal-like shape and the firing pattern of regular spiking by injecting step currents.
Laser stimulation is applied through an optical fiber placed ˜200 μm from the recording neuron using Aurora-220 (473 nm, NEWDOON, Changchun, China; http://www.newdoon.com/) to activate ChR2^+ neurons (GABAergic). In the examples, only neurons that respond to the laser pulse is recruited. HFLS (10-pulse burst at 40 Hz, repeated for 10 trials) or Low-frequency Laser Stimulation (LFLS, 1 Hz, 100 pulses) with a 15-s interval is delivered. Inhibitory postsynaptic currents (IPSCs) to the laser stimulation (1 pulse per 15 s, 5 ms in duration) under voltage-clamp recording mode (holding at −60 mV to −50 mV) are recorded for 5 min as the baseline before and for 25 min after the HFLS or LFLS.
For the normalization of recorded IPSC in the CCK-Cre, PV-Cre, CCK-KO, and CCK1R/2R-KO mice, only the patched neurons are recruited when the IPSC is greater than 35 pA.

[3] = biological target: T1, GPR173; test: Antagonism of CCK1R/2R antagonists to GPR173; assay type: cell-based
Protocol: as §1

[4] = biological target: T2, Flag-GPR173 (Homo sapiens, UniProt Q9NS66); test: Cell surface binding assay, HEK293T cells transfected with Flag-GPR173; settings: CCK-binding assay, FIG. 4B
T2 construct: host or cells: HEK293T
Protocol: HEK293T cells are transfected with pCDNA3.1(+)-Flag-GPCR (purchased from Public Protein/Plasmid Library, Nanjing, China, http://ppl.biogot.com; or home-made by us based on pCDNA3.1(+) backbone). The cells are incubated with HA-ε-Ahx-ε-Ahx or HA-(ε-Ahx)2-CCK8s dissolved in HHBS solution (Hank's solution including 20 mM N-2-hydroxyethylpiperazine-N′-2-ethanesulfonic acid (HEPES), pH=7.4) for 30 min at room temperature, 48 h after transfection by Lipo6000 (Beyotime Biotechnology, Shanghai, China, https://www.beyotime.com/). After three washes with HHBS, cells are fixed in 4% paraformaldehyde and 4% sucrose in PBS for 15 min at room temperature. Cells are blocked in 5% normal goat serum in PBS, and staining is performed in detergent-free conditions without cell permeabilization after three washes by PBS. Primary antibody rabbit anti-HA (CST, 3724 Boston, US, https://www.cellsignal.com), anti-GPR173 (PA5-50976, ThermoFisher, Waltham, MA, US, https://www.thermofisher.cn) and mouse anti-Flag (CST-8146, Boston, US, https://www.cellsignal.com) are used to detect HA and Flag tags. For binding assay of pCDNA3.1(+)-AcGFP-CCK1R, only rabbit anti-HAprimary antibody is used to detectHAtag. Images are captured on a Leica SP8 confocal microscope (Leica Microsystems, Danaher Corporation, US, https://www.leica-microsystems.com/). […]

[5] = biological target: T3, Flag-HTR1B on transfected HEK293T cells (UniProt P28222 1-390); test: cell surface binding assay on HEK293T cells transfected with Flag-tagged GPCRs, anti-HA and anti-Flag staining, confocal
T3 construct: whole, on cells
T3 sequence (P28222 whole entry): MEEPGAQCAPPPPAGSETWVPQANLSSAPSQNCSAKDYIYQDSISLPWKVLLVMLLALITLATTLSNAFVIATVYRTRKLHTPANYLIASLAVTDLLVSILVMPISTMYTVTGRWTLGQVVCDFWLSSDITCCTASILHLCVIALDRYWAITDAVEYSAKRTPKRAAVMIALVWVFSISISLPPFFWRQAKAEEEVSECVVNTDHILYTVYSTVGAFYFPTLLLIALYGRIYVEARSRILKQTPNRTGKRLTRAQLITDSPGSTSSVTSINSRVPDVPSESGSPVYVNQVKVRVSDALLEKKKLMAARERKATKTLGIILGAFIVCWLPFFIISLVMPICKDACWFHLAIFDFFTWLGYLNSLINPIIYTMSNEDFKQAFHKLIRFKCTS
Protocol: HEK293T cells are transfected with pCDNA3.1(+)-Flag-GPCR (purchased from Public Protein/Plasmid Library, Nanjing, China, http://ppl.biogot.com; or home-made by us based on pCDNA3.1(+) backbone). […] After three washes with HHBS, cells are fixed in 4% paraformaldehyde and 4% sucrose in PBS for 15 min at room temperature. Cells are blocked in 5% normal goat serum in PBS, and staining is performed in detergent-free conditions without cell permeabilization after three washes by PBS. […] For binding assay of pCDNA3.1(+)-AcGFP-CCK1R, only rabbit anti-HAprimary antibody is used to detectHAtag. Images are captured on a Leica SP8 confocal microscope (Leica Microsystems, Danaher Corporation, US, https://www.leica-microsystems.com/). Images within each experiment are collected using identical laser-power, offset, and gain.

T1 sequence (Q9NS66 whole entry, species assumed): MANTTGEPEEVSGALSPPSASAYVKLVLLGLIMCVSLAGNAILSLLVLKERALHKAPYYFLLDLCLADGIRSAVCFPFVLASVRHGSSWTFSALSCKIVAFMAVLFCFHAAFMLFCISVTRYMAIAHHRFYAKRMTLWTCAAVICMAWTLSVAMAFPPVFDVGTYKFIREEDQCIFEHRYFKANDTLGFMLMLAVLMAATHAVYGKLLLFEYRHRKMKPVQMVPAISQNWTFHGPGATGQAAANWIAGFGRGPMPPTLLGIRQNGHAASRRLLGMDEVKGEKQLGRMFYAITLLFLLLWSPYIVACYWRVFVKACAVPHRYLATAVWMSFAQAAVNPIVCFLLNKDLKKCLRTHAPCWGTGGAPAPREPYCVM
T2 sequence (Q9NS66 whole entry): as the sequence (Q9NS66 whole entry, species assumed) above

IC50 [3] | calcium signal in CHO-GPR173 cells [1] | Molecule | other results
– | – | Cc1ccccc1NC(=O)NCCCC[C@H](NC(=O)[C@H](Cc1c[nH]c2ccccc12)NC(=O)OC(C)(C)C)C(=O)N[C@@H](CC(=O)O)C(=O)N(C)[C@@H](Cc1ccccc1)C(N)=O [A-71623] (Boc-WK([CO-NH(2-Me-phenyl)])D[NMeF]-NH2) | activation of the CHO-GPR173 cell line ([1]; even at 100 μM): does not activate
12.3 ± 3.41 nM | – | CN1C(=O)[C@@H](NC(=O)c2cc3ccccc3[nH]2)N=C(c2ccccc2)c2ccccc21 [Devazepide] | blockade of HFLS-induced iLTP ([2]; Devazepide 60 nM in bath solution): entirely blocks the iLTP; normalized IPSC 20-25 min after Devazepide infusion and the HFLS ([2]; Devazepide 60 nM in bath solution, baseline 100.18±1.91, HFLS alone 183.70±6.25%, n=8): 103.24±2.54%
715 ± 99.4 nM | – | CCCCCN(CCCOC)C(=O)C(CCC(=O)O)NC(=O)c1ccc(Cl)c(Cl)c1 (centres unmarked) [Loxiglumide] | –
3100 nM | – | CNc1cccc(NC(=O)N[C@@H]2N=C(c3ccccn3)c3ccccc3N(CC(=O)C(C)(C)C)C2=O)c1 [YF476] | –
– | evokes no response | CCK4: CCK2R-selective agonist | –
– | no calcium signal | Phoenixin (DVQPPGLKVWSDPF) [PNX, Phoenixin, peptide claimed in the literature to act through GPR173] | –
– | – | {HA tag-Ahx-Ahx}-DYMGWMDF (peptide, UniProt P06307 96-103, looked up, not shown: small tags and cut ends, ends and bridges not checked; also: sulphated CCK8, site not given here, Chemically synthesised; also called HA-(ε-Ahx)2-CCK8s; HA-labeled CCK8s) [HA2A8s (HA-ε-Ahx-ε-Ahx-CCK8s)] | binding result [5]: no binding

Molecule | IC50 [3] | calcium signal in CHO-GPR173 cells [1] | other results
Cc1cccc(NC(=O)N[C@@H]2N=C(c3ccccc3)c3ccccc3N(C)C2=O)c1 [L365,260] | 16800 nM | – | –
CCK8s | – | strong calcium response | normalized IPSC amplitude 25-30 min after CCK8s+1 Hz ([2]; 200-nM CCK8s bath application 3 min before LFLS (1 Hz, 100 pulses), baseline 100.00±2.53, n=8 neurons): 161.84±4.38%; iLTP after CCK8s followed by LFLS ([2]; CCK8s+1 Hz group vs aCSF+1 Hz): large iLTP; binding affinity of Flag-GPR173 with CCK8s [4]: prominent binding affinity
